Reference: PMC11982978, “Cancer hotspot mutations rewire ERK2 specificity by selective exclusion of docking interactions” (The Journal of Biological Chemistry, 2025)
“And” between values parts separate entries of the source, which are not always exact repeats. Identical values can stand only once. Like-named read-outs stand apart in the source and are kept apart here. Peptide text beside a SMILES is read from it.

Assays:
ERK2 WT = target: T1, ERK2 WT (Mus musculus, UniProt P63085); assay: Competitive peptide kinase assay (D-peptide inhibition), ERK2 WT; assay type: biochemical; settings: 10 nM ERK2, 10 μM ATP
T1 construct: His6; made in house; host or cells: E. coli BL21(DE3), co-expressed with GST-MEK1ΔN3
Protocol: (§1) We determined relative binding affinities for D-peptides from their potency as competitive inhibitors of WT or mutant ERK2 activity on a D-site-dependent reporter substrate peptide (Table S1, Fig. 3A, S3).
(§2) Competitive peptide kinase assays were performed with a D-site dependent MAPK reporter substrate peptide (AssayQuant Technologies Inc, #AQT0376) as we reported previously ([15]). Briefly, 5 μM of reporter peptide was mixed with various concentrations of D-peptides in reaction buffer (54 mM HEPES [pH 7.4], 1.2 mM DTT, 0.01% Brij-35, 1% glycerol, 0.2 mg/ml BSA, and 10 mM MgCl2). […] Phosphorylation of the reporter peptide was measured by fluorescence (λex 360 nm, λem 485 nm) in 90 s intervals over 21 min in a Spectra M5 plate reader. Rates were calculated from the linear portion of the reaction progress curve, and data were normalized to maximum (samples lacking competitor peptide) and minimum (control reactions lacking kinase) values. Normalized rates were plotted against D-peptide concentration and fitted into a sigmoidal dose-response curve to determine the IC50 values using GraphPad Prism (Version 9.3.0).

ERK2 R133K = target: T2, ERK2 R133K (Mus musculus, UniProt P63085, R133K); assay: Competitive peptide kinase assay (D-peptide inhibition), ERK2 R133K; assay type: biochemical; settings: 10 nM ERK2, 10 μM ATP
T2 construct: His6; made in house; host or cells: E. coli BL21(DE3), co-expressed with GST-MEK1ΔN3
Protocol: as §1, §2

ERK2 D319N = target: T3, ERK2 D319N (Mus musculus, UniProt P63085, D319N); assay: Competitive peptide kinase assay (D-peptide inhibition), ERK2 D319N; assay type: biochemical; settings: Table S1, 5 μM reporter peptide, 10 nM ERK2, 10 μM ATP, three independent experiments
T3 construct: His6; made in house; host or cells: E. coli BL21(DE3), co-expressed with GST-MEK1ΔN3
Protocol: as §1, §2

ERK2 E322K = target: T4, ERK2 E322K (Mus musculus, UniProt P63085, E320K); assay: Competitive peptide kinase assay (D-peptide inhibition), ERK2 E322K; assay type: biochemical; settings: Table 2, 5 μM reporter peptide, 10 nM ERK2, 10 μM ATP, mean of three independent replicates, read-out: IC50, ERK2 E322 K
T4 construct: His6; made in house; host or cells: E. coli BL21(DE3), co-expressed with GST-MEK1ΔN3
Protocol: as §1, §2

WT ERK2 [1] = assay: Y2H D-site library screen, WT ERK2; assay type: cell-based, rat; parameters: key: ES = slope of ln(Ft/F0) vs number of yeast population doublings; settings: mutant ES is the combined average ES from the D319N and E320K screens
Text: To examine how cancer-associated CD site mutations affect the scope of ERK2 docking interactions, we adopted a Y2H strategy that we previously applied to define the D-site interactome of WT ERK2 ([15]). This system reports on interactions between ERK2 and a fragment of its substrate ELK1 that harbors a docking site essential for binding (Fig. 1C). The system thus evaluates the binding of potential sequences by substituting them for the native ELK1 docking site. We transformed Y2H strains with a bait plasmid expressing the Gal4 DNA-binding domain (DBD) fused to WT or CD mutant forms of rat ERK2 (R133K, D319N or E320K, equivalent respectively to human R135K, D321N and E322K), along with a prey plasmid expressing Gal4 activation domain (AD) fused to the ELK1 fragment harboring various docking site sequences. We then assayed these strains for growth on solid media under non-selective (+His) and selective conditions (−His) to detect interactions (Fig. 1D).
We previously used the Y2H system to screen WT ERK2 against a pooled library of 11,756 ELK1 variants incorporating potential docking sites from the human proteome ([15]). To identify interacting sequences either gained or lost upon ERK2 CD site mutation, we screened the same library against ERK2^D319N and ERK2^E320K. Yeast expressing ERK2 mutant bait plasmids were transformed with the ELK1 library pool and subjected to competitive growth under selective (−His) and non-selective conditions (+His) in parallel. Cultures were sampled periodically over ∼7 population doublings. The DNA sequence encoding the variable docking site region was PCR amplified and analyzed by next-generation sequencing (Fig. 2A, Dataset S1). The change in sequence abundance over time was fitted to an exponential function to assign an enrichment score (ES) to each docking site, where a higher ES indicates a greater increase in sequence abundance as the population grows. A significant enrichment of docking site sequences was observed only under selective conditions (Figs. 2B, S1). For each mutant, we observed generally good reproducibility across three independently conducted screens albeit with some sequences enriched in only a single replicate (Fig. S2, A and B). Average ES scores for the E320K and D319N mutant screens were better correlated with each other (R = 0.83) than were average ES scores for either mutant compared to WT ERK2 (R = 0.67 for WT versus D319N, R = 0.63 for WT versus E320K) (Fig. S2C).
To compare sequences selected by CD mutants with those selected by WT ERK2, we defined those sequences with an ES equal to or higher than three standard deviations from the mean (Z > 3) as hits. Using this cutoff, we obtained 121, 127, and 153 hits sequences from the WT, D319N, and E320K screens, respectively (Fig. 2C, Dataset S2).
Yeast harboring pGBT9-ERK2^E320K or pGBT9-ERK2^D319N were transformed with the pGADGH-ELK1 D-site library plasmid pool. Transformants (10–40 colonies per library component) were suspended in SD-Leu-Trp media, diluted to an OD600 of 0.1, and cultured in a shaking incubator at 30 °C to an OD600 of 1.0. The resulting culture was used to initiate a competitive selection screen. Cell growth, sample collection and data analysis were performed exactly as described previously for WT ERK2 ([15]). The frequency (F) of each D-site sequence at a given time point (t) was calculated by dividing the number of reads by the total read count for all sequences. For each sequence, a plot of ln(Ft/F0) as a function of the number of yeast population doublings was fit to a line, and the enrichment score (ES) for that sequence was defined as the slope of this line. Illumina sequencing reads, calculated ES, and Z scores for each screen are provided in Dataset S1.

WT ERK2 [2] = settings: selective conditions (-His); hits Z > 3; average of three screens; cited from earlier work
Text: Supplement mmc2.xlsx, sheet "WT Hits" | column: Z-score

[3] = Table S1, 5 μM reporter peptide, three independent experiments
[4] = Table 2, 5 μM D-site dependent reporter peptide, pH 7.4, fluorescence, mean of three independent replicates

T4 sequence (P63085 whole entry E320K): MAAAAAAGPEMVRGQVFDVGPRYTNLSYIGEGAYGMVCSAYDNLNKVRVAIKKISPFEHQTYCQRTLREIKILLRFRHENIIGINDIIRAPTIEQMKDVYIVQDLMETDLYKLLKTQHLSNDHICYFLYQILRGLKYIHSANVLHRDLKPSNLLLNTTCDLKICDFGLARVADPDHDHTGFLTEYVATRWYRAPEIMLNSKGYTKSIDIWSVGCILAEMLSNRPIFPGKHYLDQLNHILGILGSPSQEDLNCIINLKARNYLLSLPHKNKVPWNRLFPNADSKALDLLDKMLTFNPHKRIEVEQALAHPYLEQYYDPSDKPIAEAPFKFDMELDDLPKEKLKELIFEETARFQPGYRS
T1 sequence (P63085 whole entry): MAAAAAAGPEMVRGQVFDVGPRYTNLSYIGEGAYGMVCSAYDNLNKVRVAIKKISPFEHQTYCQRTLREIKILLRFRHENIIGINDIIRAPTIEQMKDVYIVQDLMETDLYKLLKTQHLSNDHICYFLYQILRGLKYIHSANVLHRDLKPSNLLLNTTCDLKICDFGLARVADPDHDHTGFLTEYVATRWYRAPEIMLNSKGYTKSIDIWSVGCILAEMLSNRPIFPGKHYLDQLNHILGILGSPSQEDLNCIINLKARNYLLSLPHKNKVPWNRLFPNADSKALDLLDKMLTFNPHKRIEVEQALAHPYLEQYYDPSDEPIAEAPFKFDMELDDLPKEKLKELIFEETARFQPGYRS
T2 sequence (P63085 whole entry R133K): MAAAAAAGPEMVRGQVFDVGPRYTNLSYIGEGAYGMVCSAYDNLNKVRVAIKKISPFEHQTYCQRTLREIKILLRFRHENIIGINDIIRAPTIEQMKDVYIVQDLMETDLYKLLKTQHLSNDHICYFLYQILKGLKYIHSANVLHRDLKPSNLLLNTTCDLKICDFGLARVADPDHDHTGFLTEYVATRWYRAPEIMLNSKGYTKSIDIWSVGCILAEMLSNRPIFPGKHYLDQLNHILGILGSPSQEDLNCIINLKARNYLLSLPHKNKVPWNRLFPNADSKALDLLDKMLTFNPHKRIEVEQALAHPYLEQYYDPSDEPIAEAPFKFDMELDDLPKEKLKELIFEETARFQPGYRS
T3 sequence (P63085 whole entry D319N): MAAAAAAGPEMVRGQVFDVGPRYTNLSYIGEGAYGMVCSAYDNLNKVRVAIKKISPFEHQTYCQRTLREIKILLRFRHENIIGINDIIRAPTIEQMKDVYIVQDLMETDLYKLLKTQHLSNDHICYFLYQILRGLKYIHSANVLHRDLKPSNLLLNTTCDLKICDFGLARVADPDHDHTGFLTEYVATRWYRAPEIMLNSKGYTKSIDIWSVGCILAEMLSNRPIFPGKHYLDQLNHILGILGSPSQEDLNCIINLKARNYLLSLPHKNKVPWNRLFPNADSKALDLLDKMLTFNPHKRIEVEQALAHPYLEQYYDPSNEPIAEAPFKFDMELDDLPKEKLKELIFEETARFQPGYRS

CSCC[C@H](NC(=O)[C@H](CC(C)C)NC(=O)[C@H](C)NC(=O)[C@@H](N)Cc1ccc(O)cc1)C(=O)N[C@@H](CCC(=O)O)C(=O)N[C@@H](CCCNC(=N)N)C(=O)N[C@@H](CCCNC(=N)N)C(=O)N[C@@H](CCCNC(=N)N)C(=O)N[C@@H](CC(C)C)C(=O)N[C@@H](CC(N)=O)C(=O)N[C@@H](CCC(N)=O)C(=O)N[C@@H](CC(C)C)C(=O)N[C@@H](CC(C)C)C(=O)N[C@@H](CC(C)C)C(=O)N1CCC[C@H]1C(=O)N[C@@H](CC(C)C)C(=O)O [ANAPC5] (H-YALMERRRLNQLLLPL-OH)
IC50 (ERK2 WT; [3]): 32 µM
IC50 (ERK2 R133K; [3]): 340 µM

CC(C)C[C@H](NC(=O)[C@H](C)NC(=O)[C@@H](N)Cc1ccc(O)cc1)C(=O)NCC(=O)N[C@@H](CO)C(=O)N[C@@H](CCCNC(=N)N)C(=O)N[C@@H](CCCNC(=N)N)C(=O)NCC(=O)N[C@@H](CCCNC(=N)N)C(=O)N[C@@H](CO)C(=O)N[C@@H](CO)C(=O)N[C@@H](CC(C)C)C(=O)N[C@@H](CO)C(=O)N[C@@H](CC(C)C)C(=O)N[C@@H](C)C(=O)N[C@@H](CCCCN)C(=O)O [ARHGEF2]
IC50 (ERK2 D319N): 300 µM

CC[C@H](C)[C@H](NC(=O)[C@H](C)NC(=O)[C@@H](N)Cc1ccc(O)cc1)C(=O)NCC(=O)N[C@@H](CCCNC(=N)N)C(=O)N[C@@H](C)C(=O)N[C@@H](CCCNC(=N)N)C(=O)N[C@@H](CCCNC(=N)N)C(=O)NCC(=O)N[C@@H](CC(C)C)C(=O)N1CCC[C@H]1C(=O)N[C@@H](CCCNC(=N)N)C(=O)N[C@@H](CC(C)C)C(=O)N[C@@H](C)C(=O)N[C@H](C(=O)N[C@@H](CO)C(=O)N[C@@H](CC(=O)O)C(=O)O)C(C)C [ISG20 peptide G2+] (H-YAIGRARRGLPRLAVSD-OH)
IC50 (ERK2 WT; [4]): 120 µM
IC50 (ERK2 E322K): 170 µM

CC[C@H](C)[C@H](NC(=O)[C@H](C)NC(=O)[C@@H](N)Cc1ccc(O)cc1)C(=O)N[C@@H](CCCNC(=N)N)C(=O)N[C@@H](C)C(=O)N[C@@H](CCCNC(=N)N)C(=O)N[C@@H](CCCNC(=N)N)C(=O)NCC(=O)NCC(=O)N[C@@H](CC(C)C)C(=O)N1CCC[C@H]1C(=O)N[C@@H](CCCNC(=N)N)C(=O)N[C@@H](CC(C)C)C(=O)N[C@@H](C)C(=O)N[C@H](C(=O)N[C@@H](CO)C(=O)N[C@@H](CC(=O)O)C(=O)O)C(C)C [ISG20 peptide G7+] (H-YAIRARRGGLPRLAVSD-OH)
IC50 (ERK2 WT; [4]): 75 µM
IC50 (ERK2 R133K; Table 2, 5 μM reporter peptide, mean of three independent replicates, read-out: IC50, ERK2 R133 K): 170 µM
IC50 (ERK2 E322K): 210 µM

CC[C@H](C)[C@H](NC(=O)[C@H](C)NC(=O)[C@@H](N)Cc1ccc(O)cc1)C(=O)N[C@@H](CCCNC(=N)N)C(=O)N[C@@H](C)C(=O)N[C@@H](C)C(=O)N[C@@H](CCCNC(=N)N)C(=O)NCC(=O)N[C@@H](CC(C)C)C(=O)N1CCC[C@H]1C(=O)N[C@@H](CCCNC(=N)N)C(=O)N[C@@H](CC(C)C)C(=O)N[C@@H](C)C(=O)N[C@H](C(=O)N[C@@H](CO)C(=O)N[C@@H](CC(=O)O)C(=O)O)C(C)C [ISG20 peptide R4A]
IC50 (ERK2 E322K): 300 µM

CC[C@H](C)[C@H](NC(=O)[C@H](C)NC(=O)[C@@H](N)Cc1ccc(O)cc1)C(=O)N[C@@H](CCCNC(=N)N)C(=O)N[C@@H](C)C(=O)N[C@@H](CCCNC(=N)N)C(=O)N[C@@H](C)C(=O)NCC(=O)N[C@@H](CC(C)C)C(=O)N1CCC[C@H]1C(=O)N[C@@H](CCCNC(=N)N)C(=O)N[C@@H](CC(C)C)C(=O)N[C@@H](C)C(=O)N[C@H](C(=O)N[C@@H](CO)C(=O)N[C@@H](CC(=O)O)C(=O)O)C(C)C [ISG20 peptide R5A]
IC50 (ERK2 E322K): 400 µM

GSRCARIFRLVLQK [POLR3C, D-site 14-mer in ELK1 Y2H prey]
WT ES - mutant ES (WT ERK2 [1]): 0.285
Z-score (ES) of hit sequences, WT ERK2 Y2H screen (WT ERK2 [2]): 6.39

HLSRHKIIHIGIHT [ZNF493, D-site 14-mer in ELK1 Y2H prey]
WT ES - mutant ES (WT ERK2 [1]): 0.221
Z-score (ES) of hit sequences, WT ERK2 Y2H screen (WT ERK2 [2]): 5.90

ILLRRSLEAIELGL [KLC2, D-site 14-mer in ELK1 Y2H prey]
WT ES - mutant ES (WT ERK2 [1]): 0.282
Z-score (ES) of hit sequences, WT ERK2 Y2H screen (WT ERK2 [2]): 5.90

IRARRGLPRLAVSD [ISG20, D-site 14-mer in ELK1 Y2H prey]
WT ES - mutant ES (WT ERK2 [1]): 0.761
Z-score (ES) of hit sequences, WT ERK2 Y2H screen (WT ERK2 [2]): 14.42

LWTRRRSERIFLHD [TNRC18, D-site 14-mer in ELK1 Y2H prey]
WT ES - mutant ES (WT ERK2 [1]): 0.332
Z-score (ES) of hit sequences, WT ERK2 Y2H screen (WT ERK2 [2]): 7.78

LYKRRKESILTIQK [ASPM, D-site 14-mer, start residue 1508, in ELK1 Y2H prey]
WT ES - mutant ES (WT ERK2 [1]): 0.329
Z-score (ES) of hit sequences, WT ERK2 Y2H screen (WT ERK2 [2]): 7.80 and 6.10

PLFLRRKPVLSFQG [LIG3, D-site 14-mer in ELK1 Y2H prey]
WT ES - mutant ES (WT ERK2 [1]): 0.487
Z-score (ES) of hit sequences, WT ERK2 Y2H screen (WT ERK2 [2]): 10.87

RLLWRRLKPLILGK [ABCA7, D-site 14-mer in ELK1 Y2H prey]
WT ES - mutant ES (WT ERK2 [1]): 0.266
Z-score (ES) of hit sequences, WT ERK2 Y2H screen (WT ERK2 [2]): 5.86

RLQERRGSNVALML [PTPN7, D-site 14-mer in ELK1 Y2H prey]
WT ES - mutant ES (WT ERK2 [1]): 0.474
Z-score (ES) of hit sequences, WT ERK2 Y2H screen (WT ERK2 [2]): 9.09

RLRNRNCLELKIKD [ANKRD12, D-site 14-mer in ELK1 Y2H prey]
WT ES - mutant ES (WT ERK2 [1]): 0.443
Z-score (ES) of hit sequences, WT ERK2 Y2H screen (WT ERK2 [2]): 10.11

RRMRRAGQALKLPS [HAS3, D-site 14-mer in ELK1 Y2H prey]
WT ES - mutant ES (WT ERK2 [1]): 0.310
Z-score (ES) of hit sequences, WT ERK2 Y2H screen (WT ERK2 [2]): 7.82

RRRGRPPKRIHISQ [BAZ1A, D-site 14-mer in ELK1 Y2H prey]
WT ES - mutant ES (WT ERK2 [1]): 0.150
Z-score (ES) of hit sequences, WT ERK2 Y2H screen (WT ERK2 [2]): 4.55

RSKLRKPKPVPLRK [TACC1, D-site 14-mer in ELK1 Y2H prey]
WT ES - mutant ES (WT ERK2 [1]): 0.162
Z-score (ES) of hit sequences, WT ERK2 Y2H screen (WT ERK2 [2]): 5.18

TRHERNYTKVNFCK [ZNF675, D-site 14-mer in ELK1 Y2H prey]
WT ES - mutant ES (WT ERK2 [1]): 0.359
Z-score (ES) of hit sequences, WT ERK2 Y2H screen (WT ERK2 [2]): 7.60
